# Data reported in PubChem BioAssay (NCI).
#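 Briefly, cells in 96-well plates were exposed to five compound concentrations for 48 h, and endpoints were estimated by linear interpolation. Definition used: TGI = concentration required for complete inhibition of growth.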
# Experiments:
# Test in all cases: NCI tumour cell line growth inhibition, 48 h
# HOP-18 NSCLC = system: HOP-18 NSCLC
# DLD-1 colon = system: DLD-1 colon
# SF-295 CNS = system: SF-295 CNS
# LXFL 529 NSCLC = system: LXFL 529 NSCLC
# OVCAR-8 ovarian = system: OVCAR-8 ovarian
# U251 CNS = system: U251 CNS
# XF 498 CNS = system: XF 498 CNS
# DMS 273 small cell lung = system: DMS 273 small cell lung
# M19-MEL melanoma = system: M19-MEL melanoma
# SNB-78 CNS = system: SNB-78 CNS
# KM20L2 colon = system: KM20L2 colon
# RXF-631 renal = system: RXF-631 renal
# DMS 114 small cell lung = system: DMS 114 small cell lung
# SK-OV-3 ovarian = system: SK-OV-3 ovarian
# P388 leukemia = system: P388 leukemia
# SN12K1 renal = system: SN12K1 renal
SMILES,TGI (HOP-18 NSCLC),TGI (DLD-1 colon),TGI (SF-295 CNS),TGI (LXFL 529 NSCLC),TGI (OVCAR-8 ovarian),TGI (U251 CNS),TGI (XF 498 CNS),TGI (DMS 273 small cell lung),TGI (M19-MEL melanoma),TGI (SNB-78 CNS),TGI (KM20L2 colon),TGI (RXF-631 renal),TGI (DMS 114 small cell lung),TGI (SK-OV-3 ovarian),TGI (P388 leukemia),TGI (SN12K1 renal)
COc1cc2c(c(OC)c1)C(=O)C(=O)C(CC1(C)OCCCO1)=C2,24.5 µM,8.45 µM,27.1 µM,14.6 µM,28.6 µM,28.7 µM,25.6 µM,28.4 µM,6.18 µM,26 µM,31.9 µM,36.6 µM,12.7 µM,30.2 µM,,
CCOC(=O)C1=C(C)C2C3C(=O)OC(=O)C3C1(C)C1C(=O)OC(=O)C21 (centres undefined),,> 100 µM,> 100 µM,> 100 µM,> 100 µM,> 100 µM,,> 100 µM,> 100 µM,> 100 µM,> 100 µM,> 100 µM,> 100 µM,> 100 µM,,
CN(CCO)c1nc(=O)c2c(n1C1OC(CO)C(O)C(O)C1O)CCCC2 (centres undefined),> 100 µM,> 100 µM,> 100 µM,> 100 µM,> 100 µM,> 100 µM,> 100 µM,> 100 µM,> 100 µM,> 100 µM,> 100 µM,,> 100 µM,> 100 µM,,
COc1ccc(OC)c(CCc2ccccc2CC(=O)O)c1,> 100 µM,> 100 µM,> 100 µM,> 100 µM,> 100 µM,> 100 µM,> 100 µM,> 100 µM,> 100 µM,> 100 µM,> 100 µM,,> 100 µM,> 100 µM,,
CCC/C=C/C=C\C(=O)O[C@@H]1[C@@H](C)[C@]2(O)[C@@H]3C=C(C)C(=O)[C@H]3CC(COC(C)=O)=C[C@H]2[C@@H]2C(C)(C)[C@]12OC(C)=O,109 µM,57.2 µM,39.5 µM,,116 µM,69.1 µM,16.7 µM,82.4 µM,76.5 µM,152 µM,88.8 µM,,94.6 µM,143 µM,9.61 µM,48.8 µM
C[N+]1(C)C/C(=C\C=C\c2ccccc2)C(=O)/C(=C/C=C/c2ccccc2)C1,> 61.1 µM,45.5 µM,81.7 µM,11.6 µM,53.1 µM,19.2 µM,57.4 µM,,31.7 µM,> 100 µM,33.1 µM,,10.9 µM,98.8 µM,,
N#CCCN(c1ccc(C=Nc2ccc(C(=O)O)cc2)cc1)S(=O)(=O)c1ccccc1,> 100 µM,> 100 µM,> 100 µM,> 100 µM,> 100 µM,> 100 µM,> 100 µM,> 100 µM,> 100 µM,> 100 µM,> 100 µM,,> 100 µM,> 100 µM,,
Cc1cc(N(CCC#N)CCC#N)ccc1/C=C(\N=[N+]=[N-])C(=O)NC(=O)COc1ccccc1,> 100 µM,> 100 µM,> 100 µM,> 100 µM,> 100 µM,> 100 µM,> 100 µM,> 100 µM,,> 100 µM,> 100 µM,> 100 µM,> 100 µM,> 100 µM,,
CC1=C(N2CC2)C(=O)C(C)=C(N2CC2)C1=O,11.4 µM,0.829 µM,1.47 µM,0.431 µM,2.3 µM,0.994 µM,0.3 µM,1.38 µM,0.92 µM,> 100 µM,0.568 µM,,0.471 µM,2.9 µM,,
CCOC(=O)C(C(=O)OCC)S(C)(=O)=O,> 100 µM,> 100 µM,> 100 µM,,> 100 µM,> 100 µM,> 100 µM,> 100 µM,> 100 µM,,> 100 µM,> 100 µM,> 100 µM,> 100 µM,,
CC(=O)C(C(=O)C(=O)Nc1cc(Cl)c(Cl)cc1Cl)c1csc(N)n1 (centres undefined),,> 100 µM,> 100 µM,> 100 µM,> 100 µM,> 100 µM,> 100 µM,> 100 µM,> 100 µM,> 100 µM,> 100 µM,> 100 µM,> 100 µM,> 100 µM,,
Nc1n[nH]c(N)n1,> 10000 µM,> 10000 µM,7800 µM,,> 10000 µM,> 10000 µM,2750 µM,6450 µM,> 10000 µM,> 8560 µM,> 10000 µM,,6880 µM,> 3570 µM,4240 µM,> 10000 µM
NCCCC(N)(C(=O)O)C(F)F (centres undefined),> 50 µM,> 5000 µM,> 5000 µM,,> 1090 µM,> 5000 µM,,> 5000 µM,> 5000 µM,> 5000 µM,> 5000 µM,,> 5000 µM,> 5000 µM,> 5000 µM,> 1580 µM
CCCCCC1CC(C(C)=O)CN1c1ccc(F)cc1 (centres undefined),82.5 µM,> 100 µM,63.3 µM,> 100 µM,> 100 µM,> 100 µM,52.5 µM,> 100 µM,> 100 µM,> 100 µM,> 100 µM,,62 µM,,,
O=C1CS(=O)c2ccccc2N1 (centres undefined),> 100 µM,> 100 µM,> 100 µM,> 100 µM,> 100 µM,> 100 µM,> 100 µM,33.9 µM,> 100 µM,> 100 µM,> 100 µM,> 100 µM,,> 100 µM,,
